According to patent US20160184459A1, “CANCER CELL SPECIFIC IMAGING PROBES AND METHODS OF USE” (THE RESEARCH FOUNDATION FOR THE STATE UNIVERSITY OF NEW YORK, priority 2013, published 2016):

Assays:
CCD841-CoN = assay: Cell viability assays, normal colon cells; format: cell-based, human; settings: negative control cells
Experimental: (§1) FIG. 15. Inhibition of cell viability by BKAc-Puro. The cell lines were grown and analyzed as in FIG. 12.
FIG. 18. Selective cytotoxicity by BKAc-Puro on pancreatic cancer cells. Pancreatic cancer (BXPC-3 and Miapaca-2), colon cancer (HCT116 as a positive control sensitive to the drug), and normal colon (CCD841-CoN as a negative control) cells were grown and analyzed as in FIG. 13. BKAc-Puro can effectively cause cell death on pancreatic cancer cells (BXPC-3 and MiaPaca-2) that are known to resistant to conventional chemotherapeutic drugs including 5-FU and Gemicitabine.
FIG. 19. Selective cytotoxicity by BKAc-Puro on prostate cancer cells. Prostate cancer (PC-3, DU-145, and LNCaP), colon cancer (HCT116 as a positive control sensitive to the drug), and normal colon (CCD841-CoN as a negative control) cells were grown and analyzed as in FIG. 13. BKAc-Puro can effectively cause cell death on prostate cancer cells.
Cell number was determined by cell counting using improved Neubauer hemacytometer. Cell viability was calculated as the number of viable cells divided by the total number of cells using Trypan Blue Stain (Invitrogen) to distinguish non-viable cells. Data were obtained from duplicated samples with quadruplicate measurements. […] After additional 2-3 h incubation, the absorbance of the formazan at 490 nm was measured by the microplate reader. […]

ARH-77 cells = assay: Live single cell imaging by fluorescence microscopy, cell surface Puro; format: cell-based; settings: 20 μg/ml, 16 hr, anti-puro antibody (12D10) Alexa 647, fluorescence microscopy
Experimental: Cell surface detection of Puro by anti-puro antibody (12D10) conjugated to Alexa 647 (EMD Millipore). ARH-77 cells were treated with Puro (0.25 μg/ml) or Boc-KAc-Puro (20 μg/ml) for 16 hr then harvested by centrifugation followed by two times wash using cold washing solution (0.1% BSA in PBS). Cells were resuspended in the same solution and incubated 30 min on ice with Alexa 647 conjugated mouse IgG2a anti-puromycin antibody (12D10). Cells were washed twice with the solution followed by fluorescence microscope analysis. The specificity of the antibody was confirmed by using isotype control antibody (mouse IgG2a conjugated with Alexa 647).

[1] = test system: pancreatic cancer cells (BXPC-3 and MiaPaca-2); assay: Cell viability assay, pancreatic cancer cells; format: cell-based, human; settings: MTS
Experimental: FIG. 16. Anticancer effect of BKAc-Puro on pancreatic cell lines. The cell lines were treated with DMSO (vehicle), BKAc-Puro (54 μM), or Puro (4.2 μM) for 5 d followed by MTS assay. Normal Eph4 (non-pancreatic) cells are shown as control. Data represent mean values of triplicate measurements±s.d.
FIG. 18. Selective cytotoxicity by BKAc-Puro on pancreatic cancer cells. Pancreatic cancer (BXPC-3 and Miapaca-2), colon cancer (HCT116 as a positive control sensitive to the drug), and normal colon (CCD841-CoN as a negative control) cells were grown and analyzed as in FIG. 13. […]
(§2) Cell number was determined by cell counting using improved Neubauer hemacytometer. Cell viability was calculated as the number of viable cells divided by the total number of cells using Trypan Blue Stain (Invitrogen) to distinguish non-viable cells. […] After additional 2-3 h incubation, the absorbance of the formazan at 490 nm was measured by the microplate reader. […] Determination of non-viable cells using PI staining was performed by adding 1 μg/ml of PI solution (Sigma) to the cell culture, prior to the examination under fluorescence microscopy (Axiovert 3, Carl Zeiss) through a×32 objective equipped with a digital imaging processor (Infinity 3, Lumenera).

[2] = test system: non-malignant Caco-2 cells; assay: MTS cell viability assay, Caco-2; format: cell-based, human
Experimental: FIG. 13. Inhibition of cell viability by BKAc-Puro is presented in dose-response curve format for the same cell lines as in FIG. 8. The cell lines were treated with DMSO or the indicated doses of agent (4.22, 8.44, 16.9, 33.8, 67.5, or 135 μM) for 5 d followed by MTS assay. Data represent mean values of triplicate measurements±s.d. (n=3). IC50 values were fit by logistic regression.
FIG. 14. Inhibition of cell viability by parental Puro. The cell lines were treated with the indicated doses of Puro (0, 1.1, 2.1, 4.2, or 8.4 μM) for 3 d followed by MTS assay. Data represent mean values of triplicate measurements±s.d.
Cell number was determined by cell counting using improved Neubauer hemacytometer. Cell viability was calculated as the number of viable cells divided by the total number of cells using Trypan Blue Stain (Invitrogen) to distinguish non-viable cells. Data were obtained from duplicated samples with quadruplicate measurements. MTS based cell viability assay was performed using CellTiter 96 Aqueous Cell Proliferation Assay (Promega) according to the manufacturer's instruction. Either 1 μl of DMSO alone or variable concentrations of BKAc-Puro or Puro in DMSO were added to the cell lines seeded at 5×10^4 cells per well in 96-well tissue culture plates in 100 μl of the growth medium, followed by 3-5 d incubation at 37° C. with 5% CO2 atmosphere. Then 20 μl of the MTS reagent was added to each well. After additional 2-3 h incubation, the absorbance of the formazan at 490 nm was measured by the microplate reader. Percent cell viability was expressed relative to the wells containing cells treated with DMSO alone. Data were obtained from triplicate measurements. […] Determination of non-viable cells using PI staining was performed by adding 1 μg/ml of PI solution (Sigma) to the cell culture, prior to the examination under fluorescence microscopy (Axiovert 3, Carl Zeiss) through a×32 objective equipped with a digital imaging processor (Infinity 3, Lumenera).

[3] = test system: breast cancer cells (MCF-7 and MDA-MB-231); assay: PI staining cytotoxicity, breast cancer cells; format: cell-based
Experimental: (§3) FIG. 17. Selective cytotoxicity by BKAc-Puro on breast cancer cells. Normal mammary gland epithelial cells (Eph4) and breast cancer cells (MCF-7 and MDA-MB-231) were grown and analyzed as in FIG. 10. BF, bright field. PI, fluorescent PI channel. BKAc-Puro can selectively cause cell death in breast cancer cells (MCF-7 and MDA-MB-231) while leaving normal Eph4 cells unharmed.
as §2, with “cells. Data were obtained from duplicated samples with quadruplicate measurements. MTS based cell viability assay was performed using CellTiter 96 Aqueous Cell Proliferation Assay (Promega) according to the manufacturer's instruction.” for “cells.”

Eph4 = assay: Cell viability assays (MTS, PI staining), normal mammary epithelial cells; format: cell-based, mouse
Experimental: as §1, §3
as §2, with “cells. Data were obtained from duplicated samples with quadruplicate measurements. MTS based cell viability assay was performed using CellTiter 96 Aqueous Cell Proliferation Assay (Promega) according to the manufacturer's instruction.” for “cells.”

In the case of `COc1ccc(CC(NC(=O)C(CCCCNC(C)=O)NC(=O)OC(C)(C)C)C(=O)NC2C(O)[C@H](n3cnc4c(N(C)C)ncnc43)O[C@@H]2CO)cc1` (stereo partly drawn) [BKAc-Puro, N-[3′-(α-Amino-p-methoxyhydrocinnamamido)-3′-deoxy-N,N-dimethyldenosinyl)-N-α-(t-butoxycarbonyl]-N-ε-acetyl-L-lysineamide], the “Effect on normal colon cells” value (CCD841-CoN) is reported as “relatively little effect”, the “Puro presentation on cell surface proteins” value (ARH-77 cells) is reported as “confirmed” and the “Effect on cell viability” value ([1]; 54 μM, 5 d) is reported as “also effective”. The Cell death ([1]; dose-response) was “effectively caused cell death”, the “Highest inactive dose relative to dose of parental Puro effective to Caco-2 cells” value ([2]; 135 μM BKAc-Puro vs parental Puro) was “more than 30 times” and the IC50 ([2]; Homo sapiens, Caco-2, 120 h, MTS, 5 d, sufficient inhibition not achieved with doses up to 135 μM) was over 135 µM. The Cell death [3] was “selectively caused cell death” and the Cell death (Eph4) was “unharmed”.
